Source: patent US20170114030A1, “COMPOSITION WITH HIGH CONTENT OF CYCLIC DIPEPTIDE” (SUNTORY HOLDINGS LIMITED, priority 2014, published 2017)

Test system: plasma active GLP-1
Assay: In vivo plasma active GLP-1 level-increasing action after oral administration
Set-up: species or system mice
Settings: 10 mg/kg orally; for Plasma active GLP-1 level (relative value to control group as 100), Average value: male C57/BL6J mice, blood after 30 minutes, 0.5% CMC-Na group = 100; for Significant difference (p < 0.05) vs control group, plasma active GLP-1 level: mice, 30 minutes, Student's t-test
Method: In the Test Examples below, data were represented as average value±standard error. In Test Examples 1, 2, and 3, a Student's t-test was used for a statistical test, and in other Test Examples, one-way ANOVA was carried out for dispersion analysis followed by a multiple comparison test by using a Dunnet's test. […] All of these analyses were carried out by using an SPSS for Windows release 17.0 (manufactured by SPSS Inc.).
Among the cyclic dipeptides, cyclic dipeptides for which an in vitro GLP-1 secretion-accelerating action was found and highly lipid-soluble cyclic dipeptides were used in the following experiment. Seven-week-old male C57/BL6J mice were purchased from CLEA Japan, Inc. for use, and they were subjected to an experiment after 1 week of a habituation period. Each animal was grown in an animal room with an air conditioning system (temperature: 23.5±1.0° C., humidity: 55±10 RH %, air ventilation: 12 to 15 times/hour, illumination: from 7:00 to 19:00/day).
After the habituation period, the mice were subjected to 5.5 hours of food deprivation and 2 hours of water deprivation. Thereafter, a cyclic dipeptide dissolved or suspended in a 0.5% CMC-Na aqueous solution in 10 mg/kg was orally administered to each mouse forcibly. After 30 minutes, the blood was collected from the abdominal vena cava under anesthesia, and 1 μL of heparin sodium and 1 μL of 10 mM Sitagliptin phosphate were added to each collected blood, which was then subjected to centrifugation at 8000 rpm for 10 minutes to recover the plasma, and the plasma active GLP-1 level was measured by using the ELISA kit. In the analysis, the active GLP-1 level for a group administered with 0.5% CMC-Na aqueous solution was defined as 100, and relative values thereto were used.
In each Table, cyclic dipeptides for which an in vivo plasma active GLP-1 level-increasing action was found and was not found are listed.

Row | SMILES | Plasma active GLP-1 level (relative value to control group as 100), Average value (Experiment 7) | Significant difference (p < 0.05) vs control group, plasma active GLP-1 level (Experiment 7) | Plasma active GLP-1 level (relative value to control group as 100), Average value (Experiment 10) | Significant difference (p < 0.05) vs control group, plasma active GLP-1 level (Experiment 10) | other results
1 | O=C(O)CCC1NC(=O)C(Cc2ccc(O)cc2)NC1=O (stereo not shown) [compound 87] | 141 | No | – | – | –
2 | CC(C)C1NC(=O)C(Cc2ccc(O)cc2)NC1=O (stereo not shown) [compound 88] | 385 | Yes | – | – | –
3 | CC(O)C1NC(=O)C(Cc2ccc(O)cc2)NC1=O (stereo not shown) [compound 90] | 466 | Yes | – | – | –
4 | O=C(O)CC1NC(=O)C(Cc2ccc(O)cc2)NC1=O (stereo not shown) [compound 91] | 181 | No | – | – | –
5 | NC(=O)CC1NC(=O)C(Cc2ccc(O)cc2)NC1=O (stereo not shown) [compound 92] | 181 | No | – | – | –
6 | NC(=O)CCC1NC(=O)C(Cc2ccc(O)cc2)NC1=O (stereo not shown) [compound 93] | 344 | Yes | – | – | –
7 | CC(C)CC1NC(=O)C(Cc2c[nH]cn2)NC1=O (stereo not shown) [compound 103] | – | – | – | – | Plasma active GLP-1 level (relative value to control group as 100), Average value (Experiment 8): 94; Significant difference (p < 0.05) vs control group, plasma active GLP-1 level (Experiment 8): No
8 | CSCCC1NC(=O)C(C)NC1=O (stereo not shown) [compound 125] | – | – | – | – | Plasma active GLP-1 level (relative value to control group as 100), Average value (Experiment 9): 133
9 | CSCCC1NC(=O)CNC1=O (stereo not shown) [compound 127] | – | – | – | – | Plasma active GLP-1 level (relative value to control group as 100), Average value (Experiment 9): 124; Significant difference (p < 0.05) vs control group, plasma active GLP-1 level (Experiment 9): Yes
10 | CCC(C)C1NC(=O)C(CO)NC1=O (stereo not shown) [compound 133] | – | – | – | – | Plasma active GLP-1 level (relative value to control group as 100), Average value (Experiment 9): 133; Significant difference (p < 0.05) vs control group, plasma active GLP-1 level (Experiment 9): Yes
11 | CC(C)C1NC(=O)C(CC(N)=O)NC1=O (stereo not shown) [compound 141] | – | – | 191 | Yes | –
12 | CCC(C)C1NC(=O)C(Cc2cnc[nH]2)NC1=O (stereo not shown) [compound 148] | – | – | 259 | Yes | –
13 | CCC(C)C1NC(=O)C(CCCCN)NC1=O (stereo not shown) [compound 150] | – | – | 282 | Yes | –
14 | CC(C)C1NC(=O)CNC1=O (stereo not shown) [compound 155] | – | – | 55 | No | –
15 | CCC(C)C1NC(=O)C(C(C)O)NC1=O (stereo not shown) [compound 161] | – | – | 282 | Yes | –
16 | CCC(C)C1NC(=O)C(CC(=O)O)NC1=O (stereo not shown) [compound 162] | – | – | 259 | Yes | –
17 | CCC(C)C1NC(=O)C(CC(N)=O)NC1=O (stereo not shown) [compound 163] | – | – | 327 | Yes | –
18 | CSCCC1NC(=O)C(C(C)O)NC1=O (stereo not shown) [compound 169] | – | – | 282 | Yes | –
19 | O=C1NC(CS)C(=O)NC1CO (stereo not shown) [compound 180] | – | – | 259 | Yes | –
